Results published in patent publication US5047419A, “Photodynamic therapy of glioma or mammary carcinoma using seleno- or telluropyrylium salts” (Eastman Kodak Company, priority 1988, dated 1991).

Tests used:
[1] = Quantum efficiency of singlet oxygen generation in air-saturated solution; assay type: physicochemical
From the text: (§1) The ability of the dyes of this invention to function as a cancer-treating agent is in part a reflection of the ability of the dye to generate singlet oxygen in air-saturated solution. (As used herein, "air-saturated solution" means a solution of dye exposed to the atmosphere.) In studying a variety of chalcogenopyrylium dyes, only those dyes containing a selenium or tellurium atom show any appreciable generation of singlet oxygen upon irradiation. Fortuitously, selenopyrylium and telluropyrylium dyes have absorption maxima that are shifted to the red relative to their pyrylium and thiopyrylium analogues. That is, not only are these dyes effective in killing cancer cells because of their high quantum efficiency, but also they generally operate at the most preferred wavelengths, namely those of 700 nm or longer. Table III contains examples of chalcogenopyrylium dyes, their quantum efficiencies for singlet oxygen generation, and their absorption maxima. (In this Table, Ph=Phenyl, Me=Methyl, and t-Bu=tertiary butyl.)

[2] = Absorption maxima (λmax) of chalcogenopyrylium dyes; assay type: physicochemical
From the text: as §1

[3] = Distribution of Dye 1 in organ tissues of glioma (RT-1) bearing rats; assay type: in vivo, rat
Method: Dye 1 of Table 1 was delivered to glioma sites in rat brains, such sites having been achieved by implanting RT-1 rat glioma cancer cells into the brains of twenty-four 400 g rats. Stock solutions of Dye 1 at 1 mM concentration were prepared by dissolving the dye in a minimal amount of 95% ethanol and diluting with phosphate buffered saline to 1 mM. RT-1 glioma cells were injected into the cortex of the rats at day 0. Treatment with the dye was done at day 12. A quantity of the stock solution sufficient to deliver 1.5 mg (2.5 μmol) of Dye 1 per rat (approximately2 mL) was delivered by femoral artery or carotid artery injection. The animals were sacrificed at the indicated times, the indicated tissues were removed, and frozen until the amount of dye was quantified. The dye content of the indicated tissues was examined spectroscopically by homogenizing the tissues, doing a lipid extraction of the homogenate, and measuring the optical density of the extract at a constant volume at the wavelength of the dye. Alternatively, a tritium labeled sample of Dye 1 was employed in the injection and the tissue homogenate was placed directly in a scintillation vial. The dye content was then measured by tritium count. […] (The values listed at times of 0.25 and 1.0 h after injection are comparative examples only, since there is either too high a concentration present in the brain, or too little in the tumor.)

[4] = test system: RT-1 glioma cells; assay: Survival study of rats implanted with RT-1 glioma cells; assay type: in vivo, rat; settings: for Mean Survival Time: 2.5 μmol femoral artery
Method: A survival study was conducted using Dye 1 with 400 g rats implanted with RT-1 glioma cells at day 0 and treated with 2.5 μmol of dye delivered by femoral artery injection on day 12. The treated animals were irradiated one hour post injection using a quartz fiber optic with a diffusion tip with the dye laser described earlier as the light source. Total irradiation energy was 50 J cm^-2 at 785 nm. Three control groups were used: untreated animals, animals treated with dye only, and animals treated with light only. [The number of rats per group were: 10 for laser and dye treatment, 6 for control (no treatment), 14 for dye only and 6 for laser only.] Mean survival time data are compiled in Table VIII.

[5] = Distribution of Dye 5 in organ tissues of rats bearing an implanted mammarian tumor; assay type: in vivo, rat; settings: peritoneum, prep L, optical density
[6] = carotid artery, 0.33 h, prep H, tritium counts
[7] = femoral artery, 0.25 h, prep D, tritium counts
[8] = femoral artery, 0.50 h, prep D, tritium counts
[9] = femoral artery, 1.0 h, prep (L), optical density (B)
[10] = femoral artery, 1.0 h, prep D, tritium counts

## CC(C)(C)C1=CC(=CC=Cc2cc(C(C)(C)C)[se+]c(C(C)(C)C)c2)C=C(C(C)(C)C)[Se]1 [Dye 2]
[1]; air-saturated solution
  Quantum efficiency of singlet oxygen generation Φ(1O2): 0.014
[2]; H2O
  Absorption maximum λmax: 730 nm

## CC(C)(C)C1=CC(=CC=Cc2cc(C(C)(C)C)[s+]c(C(C)(C)C)c2)C=C(C(C)(C)C)S1.F[P-](F)(F)(F)(F)F [C.E. 1, 2,6-Di-t-butyl-4-[3-(2,6-di-t-butyl-4H-thiopyran-4-ylidene)-1-propen-1-yl]thiopyrylium hexafluorophosphate, reference compound]
[1]; air-saturated solution
  Quantum efficiency of singlet oxygen generation Φ(1O2): ≤ 0.001
[2]; H2O
  Absorption maximum λmax: 660 nm

## CC(=CC(C)=C1C=C(C(C)(C)C)[Se]C(C(C)(C)C)=C1)c1cc(C(C)(C)C)[se+]c(C(C)(C)C)c1 [Dye 7]
[1]; air-saturated solution
  Quantum efficiency of singlet oxygen generation Φ(1O2): 0.005
[2]; MeOH
  Absorption maximum λmax: 790 nm

## CC(C=Cc1cc(C(C)(C)C)[te+]c(C(C)(C)C)c1)=C1C=C(C(C)(C)C)[Se]C(C(C)(C)C)=C1 [Dye 6]
[1]; air-saturated solution
  Quantum efficiency of singlet oxygen generation Φ(1O2): 0.01
[2]; CH2Cl2
  Absorption maximum λmax: 803 nm

## CC(C)(C)C1=CC(=CC=Cc2cc(C(C)(C)C)[s+]c(C(C)(C)C)c2)C=C(C(C)(C)C)[Te]1 [Dye 3]
[1]; air-saturated solution
  Quantum efficiency of singlet oxygen generation Φ(1O2): 0.07
[2]; H2O
  Absorption maximum λmax: 745 nm

## CC(C)(C)C1=CC(=CC=Cc2cc(C(C)(C)C)[se+]c(C(C)(C)C)c2)C=C(C(C)(C)C)[Te]1.[Cl-] [Dye 1, 2,6-Di-t-butyl-4-[3-(2,6-di-t-butyl-4H-telluropyran-4-ylidene)-1-propen-1-yl]selenopyrylium chloride]
[3]; [6]
  nmol Dye 1/g of tissue, Brain: 0.9 nmol Dye 1/g of tissue
  nmol Dye 1/g of tissue, Tumor: 16.0 nmol Dye 1/g of tissue
[3]; femoral artery, 0.25 h, prep (H), tritium counts
  nmol Dye 1/g of tissue, Liver: 5.4 nmol Dye 1/g of tissue
[3]; [7]
  nmol Dye 1/g of tissue, Brain: 46 nmol Dye 1/g of tissue
  nmol Dye 1/g of tissue, Heart: 7.4 nmol Dye 1/g of tissue
  nmol Dye 1/g of tissue, Liver: 9.1 nmol Dye 1/g of tissue
  nmol Dye 1/g of tissue, Tumor: 45 nmol Dye 1/g of tissue
[3]; [8]
  nmol Dye 1/g of tissue, Brain: 18.0 nmol Dye 1/g of tissue
  nmol Dye 1/g of tissue, Liver: 17.0 nmol Dye 1/g of tissue
  nmol Dye 1/g of tissue, Tumor: 32.0 nmol Dye 1/g of tissue
[3]; [9]
  nmol Dye 1/g of tissue, Heart: 1.1 nmol Dye 1/g of tissue
  nmol Dye 1/g of tissue, Liver: 3.3 nmol Dye 1/g of tissue
[3]; [10]
  nmol Dye 1/g of tissue, Brain: 4.7 nmol Dye 1/g of tissue
  nmol Dye 1/g of tissue, Heart: 1.3 nmol Dye 1/g of tissue
  nmol Dye 1/g of tissue, Liver: 13.2 nmol Dye 1/g of tissue
[3]; rat, arterial injection
  passage of the blood-brain barrier: appears to pass the blood-brain barrier
[3]; short time periods following injection
  concentrations of the dye in the tumor mass: reasonably high concentrations
[4]; Dye 1 and light
  survival relative to animals in the control groups: prolonged survival
[4]; Dye Only, day ≥15
  Proportion of Animals Surviving: 0.50
[4]; Dye Only, day ≥19
  Proportion of Animals Surviving: 0.43
[4]; Dye Only, day ≥22
  Proportion of Animals Surviving: 0.43
[4]; Dye Only, day ≥26
  Proportion of Animals Surviving: 0.43
[4]; Dye Only, day ≥33
  Proportion of Animals Surviving: 0.43
[4]; Dye Only, day ≥40
  Proportion of Animals Surviving: 0.43
[4]; Dye Only, day ≥47
  Proportion of Animals Surviving: 0.00
[4]; Dye Only
  Mean Survival Time: 27.9 days
[4]; Laser + Dye, day ≥15
  Proportion of Animals Surviving: 0.70
[4]; Laser + Dye, day ≥19
  Proportion of Animals Surviving: 0.70
[4]; Laser + Dye, day ≥22
  Proportion of Animals Surviving: 0.70
[4]; Laser + Dye, day ≥26
  Proportion of Animals Surviving: 0.60
[4]; Laser + Dye, day ≥33
  Proportion of Animals Surviving: 0.50
[4]; Laser + Dye, day ≥40
  Proportion of Animals Surviving: 0.50
[4]; Laser + Dye, day ≥47
  Proportion of Animals Surviving: 0.30
[4]; Laser + Dye, 50 J cm^-2 at 785 nm
  Mean Survival Time: 32.8 days
[4]; fully treated (laser + dye), from day 47 on
  animals still alive: 30%

## CC(=C1C=C(c2ccccc2)[Te]C(c2ccccc2)=C1)c1cc(-c2ccccc2)[te+]c(-c2ccccc2)c1 [Dye 11]
[1]; air-saturated solution
  Quantum efficiency of singlet oxygen generation Φ(1O2): 0.01
[2]; CH2Cl2
  Absorption maximum λmax: 843 nm

## C(=C1C=C(c2ccccc2)[Te]C(c2ccccc2)=C1)c1cc(-c2ccccc2)[te+]c(-c2ccccc2)c1 [Dye 10]
[1]; air-saturated solution
  Quantum efficiency of singlet oxygen generation Φ(1O2): 0.08
[2]; MeOH
  Absorption maximum λmax: 760 nm

## CC(=C1C=C(C(C)(C)C)[Te]C(C(C)(C)C)=C1)c1cc(C(C)(C)C)[te+]c(C(C)(C)C)c1 [Dye 13]
[1]; air-saturated solution
  Quantum efficiency of singlet oxygen generation Φ(1O2): 0.005
[2]; H2O
  Absorption maximum λmax: 790 nm

## CC(C)(C)C1=CC(=CC=Cc2cc(C(C)(C)C)[s+]c(C(C)(C)C)c2)C=C(C(C)(C)C)[Se]1 [Dye 8]
[1]; air-saturated solution
  Quantum efficiency of singlet oxygen generation Φ(1O2): 0.008
[2]; H2O
  Absorption maximum λmax: 700 nm

## CC(C)(C)C1=CC(=C(C#N)C=Cc2cc(C(C)(C)C)[te+]c(C(C)(C)C)c2)C=C(C(C)(C)C)[Te]1 [Dye 15]
[1]; air-saturated solution
  Quantum efficiency of singlet oxygen generation Φ(1O2): 0.08
[2]; MeOH
  Absorption maximum λmax: 790 nm

## CC(C)(C)C1=CC(=Cc2cc(CCCCO)[te+]c(CCCCO)c2)C=C(C(C)(C)C)[Se]1 [Dye 18]
[1]; estimated
  Quantum efficiency of singlet oxygen generation Φ(1O2): ≥ 0.005
[2]; MeOH
  Absorption maximum λmax: 690 nm

## CC(C)(C)C1=CC(=CC=Cc2cc(C(C)(C)C)[o+]c(C(C)(C)C)c2)C=C(C(C)(C)C)[Te]1.[O-][Cl+3]([O-])([O-])[O-] [Dye 5, 2,6-Di-t-butyl-4-[3-(2,6-di-t-butyl-4H-telluropyran-4-ylidene)-1-propen-1-yl]pyrylium perchlorate]
[5]; 2 h
  nmol Dye 1/g of tissue, Heart: 1.3 nmol Dye 1/g of tissue
  nmol Dye 1/g of tissue, Kidney: ≤ 0.5 nmol Dye 1/g of tissue
  nmol Dye 1/g of tissue, Liver: 4.1 nmol Dye 1/g of tissue
  nmol Dye 1/g of tissue, Tumor: 5.5 nmol Dye 1/g of tissue
[5]; 4 h
  nmol Dye 1/g of tissue, Heart: ≤ 0.5 nmol Dye 1/g of tissue
  nmol Dye 1/g of tissue, Kidney: ≤ 0.5 nmol Dye 1/g of tissue
  nmol Dye 1/g of tissue, Liver: 3.8 nmol Dye 1/g of tissue
  nmol Dye 1/g of tissue, Tumor: 3.3 nmol Dye 1/g of tissue

## CC(C)(C)C1=CC(=CC=Cc2cc(C(C)(C)C)[o+]c(C(C)(C)C)c2)C=C(C(C)(C)C)S1.F[P-](F)(F)(F)(F)F [C.E. 2, 2,6-Di-t-butyl-4-[3-(2,6-di-t-butyl-4H-thiopyran-4-ylidene)-1-propen-1-yl]pyrylium hexafluorophosphate, reference compound]
[1]; air-saturated solution
  Quantum efficiency of singlet oxygen generation Φ(1O2): ≤ 0.001
[2]; H2O
  Absorption maximum λmax: 630 nm
